Laboratory results taken from US11707557B2, “Compositions and devices incorporating water-insoluble therapeutic agents and methods of the use thereof” (COOK MEDICAL TECHNOLOGIES LLC, priority 2014, dated 2023).
Converted amounts (≈) assume the structure as drawn.

Experiments:
[1] = Drug concentrations obtained using EGCG at 50 mg per ml (microscopic check for particulates); format: physicochemical; details: for Drug Concentration: 1 ml of water; for Particulates present: under a microscope
Method: EGCG at 50 mg/ml and drug at approximately 250 micrograms per ml were dissolved in the listed solvent and dried down in a test tube under nitrogen. 1 ml of water was added, followed by vortexing. The solutions were examined for particulate matter under a microscope. If no particulates were present, the process was repeated with a higher drug amount. All the tested drugs remained in solution at the listed concentrations except for nystatin and hesperidin.

[2] = Lidocaine release from propylene glycol:gallate pastes into PBS; format: physicochemical
Method: For each formulation, 100 mg of paste was placed in the base of a round bottomed 15 mL glass test tube. […] At the start of the release experiment, 10 ml of PBS was added and the tubes left for various time periods, after which all 10 mL of the release media was removed for drug analysis. The residual mass was observed from the top, and the drop in diameter from 8 mm noted as a semi-quantitative assessed of paste pellet degradation. It was not possible to measure the degradation fully quantitatively at that time, as the pellets were fragile and water-swollen. After a few days the pellets became less fragile, and were removed from the tubes and dried on tissue paper before weighing. The drop in weight from 100 mg was then noted as the % degradation and compared with the visual observations.

[3] = Solubility of EGCG and tannic acid in propylene glycol and PEG 300
Description: EGCG and tannic acid are fairly soluble in alcohol and acetonitrile. […] These solutions become more viscous and paste-like as the percentage of gallate in solution is increased. When non-drug containing pastes were placed in water, the contents of the paste (gallate, PG or PEG), which are all water soluble, dissolved away.

[4] = Release from PLGA microspheres +/- EGCG or tannic acid; format: physicochemical; details: over a 10 days period
Method: Method: The method involved pipetting a solution of the polymer PLGA (usually 20% w/v) and drug (usually 5% w/w to polymer) and EGCG (e.g. 20% w/w/ to polymer) in dichlomethane (DCM) (5 ml) into 100 ml of 2.5% PVA solution in water stirring at 450 rpm. The suspension was left stirring for 2 hours and the microspheres washed 4 times in distilled water. The microspheres were then dried under vacuum for 2 days. Drug encapsulation was measured by dissolving a known weight of microspheres in 1 ml of dichloromethane followed by immediate dilution to 10 ml in 60:40 acetonitrile/water. The amount of drug or EGCG in the top and bottom phase of this solution was measured using HPLC methods (mobile phase 58:37:5 Acetonitrile:water:methanol. 1 ml per min flow on a c18 column with detection at 232 nm)
Tannic acid: An alternative method was used, termed a water-in oil-in water emulsion. […] This forms a primary emulsion of water droplets in the PLGA solution stabilized by Span. When this emulsion was pipetted into the PVA solution the microspheres formed well. […] The microspheres were a light brown in color indicative of tannic acid encapsulation.
Methods: In these studies, 10 mg of microspheres were suspended in 2 ml of phosphate buffered saline (pH 7.4 10 mM phosphate) in microcentrifuge tubes and tumbled at 8 rpm at 37° C. The tubes were then centrifuged at 12000×g and the supernatants collected for drug analysis by HPLC. 2 ml of fresh PBS was then placed on top of the microspheres which were returned to the 37° C. oven for continued incubation with tumbling.
At the end of the study the residual mass of polymer and drug was dissolved in DCM and drug extracted into 60:40 acetonitrile:water to measure residual drug. The amounts of residual drug were 89% for plga alone (at 31 days), 16% for EGCG and 8% for tannic acid (both at 51 days) as expressed as a % of the original loading.

pig skin = tested on: pig skin
Method: Various gallate-containing drug formulations were prepared and applied to ex vivo pig skin samples. Fresh pig skin was obtained from a local butcher, processed within three hours and then frozen. For experiments, the skin was slowly thawed, excess fat removed from the base, and cut into 1×2 cm squares. These squares were mounted and clamped on Franz diffusion cells, which kept the tissue moist and isolated and exposed a 6 mm diameter of the upper skin surface for the application of a drug loaded formulation. Skin samples were then frozen and later cryosectioned in 50 μm slices. The drug in the slices was extracted and measured by HPLC or radioactive doping methods. A drug depth profile was then established for each drug.
1. Formulations containing a drug and a gallate. The drugs were dissolved in ethanol at various concentrations along with either EGCG or TA (500 mg/mL). Each solution was pipetted into 6×5 mm diameter aluminum cups (approximately 3 mm in height) by filling and allowing the ethanol to evaporate at 50° C. until all the solution was used up (80 mg per cup).
2. Formulations containing a drug, propylene glycol (“PG”) and a gallate. 300 mg of propylene glycol was mixed with 200 mg of EGCG or TA until dissolved. Various amounts of drug were added to this mixture and dissolved. 80 mg of the resulting viscous solution was weighed into 6×5 mm aluminum cups.
3. Control Formulations. Control formulations were prepared using Glaxal base and Plogel. Glaxal base is a cream used by compounding pharmacists to manufacture topical formulations of drugs. Plogel is an alternative used for dermal formulations. […] Drug was added to a known weight of Glaxal or Plogel and levigated to produce a standard drug dispersion. These formulations were prepared the evening before the experiment. For some drugs, radioactive drug (where available) was also added as a doping additive to facilitate quantitation in tissues.
Eutectics: In some cases, gallate containing compounds and drugs were formulated in eutectic mixtures. These included a 60:40 (% w/w) mixture of menthol with ibuprofen. These agents acted as a carrier for retinoic acid, which was then dissolved in this liquid. The 3-drug eutectic/solution was then blended into the CMC/poloxamer emulsion containing EGCG (2.5%). […] The emulsion was stabilized with poloxamer.
Example 29. Pig skin studies. Aluminum cups containing drug formulations were inverted on top of the pig skin in the Franz diffusion cell so that the formulation contents were in contact with the skin. […]
Analysis. […] The amount of drug in each group of skin sections was then determined using HPLC methods, or by radioactivity counting on a liquid scintillation counter. The amount of drug in each group of skin sections was expressed as μg/g or mg/g of tissue.

[5] = Solubility of drug in EGCG or tannic acid solutions (dried down, PBS or water added, 0.22 micron filtered, HPLC or absorbance)
Method: PBS (EGCG) or water (tannic acid) was added and the final solution filtered through a 0.22 micron filter to remove any particulates. The solutions were analyzed for drug concentration using HPLC.
PBS (EGCG) or water (tannic acid) was added and the final solution filtered through a 0.22 micron filter to remove particulates. The solution was then analyzed for drug concentration using absorbance spectroscopy at 450 nm.
PBS (EGCG) or water (tannic acid) was added and the final solution was filtered through a 0.22 micron filter to remove any particulates and the solution was analyzed for drug concentration using HPLC.
PBS (EGCG) or water (tannic acid) was added and the final solution filtered through a 0.22 micron filter to remove any particulates and the solution was analyzed for drug concentration using HPLC.
PBS (EGCG) or water (Tannic acid) was added and the final solution was filtered through a 0.22 um filter to remove any particulates and the solution was analyzed for drug concentration using HPLC.
Method: drug and EGCG or tannic acid were dried down from acetonitrile (or methanol for tannic acid) solutions at various drug to EGCG or tannic acid ratios. PBS (EGCG) or water (Tannic acid pH adjusted to 7) was added and the final solution was filtered through a 0.22 um filter to remove any particulates and the solution was analyzed for drug concentration using HPLC methods.

SMILES | Visual appearance [1] | Drug Concentration [1] [microgram/ml] | Particulates present [1] | also measured
CC1C(=O)OC2C(O)C34C5CC(C(C)(C)C)C36C(OC(=O)C6O)OC4(C(=O)O5)C12O (centres unmarked) [ginkgolide B] | clear solution | 250 | no | –
COc1ccc([C@@H]2CC(=O)c3c(O)cc(O[C@@H]4O[C@H](CO[C@@H]5O[C@@H](C)[C@H](O)[C@@H](O)[C@H]5O)[C@@H](O)[C@H](O)[C@H]4O)cc3O2)cc1O [hesperedin] | almost clear | 125 | very | –
CCN(CC)CC(=O)Nc1c(C)cccc1C [lidocaine] | – | – | – | period of drug release ([2]; EGCG:propylene glycol pastes, 20% drug loading): 2-4 weeks; drug release ([2]; all EGCG:propylene glycol pastes, 5% drug loading, in approximately 2 days): ~100%; period of drug release ([2]; tannic acid:propylene glycol pastes, 5% drug loading): ~7 days; period of drug release ([2]; tannic acid:propylene glycol pastes, 20% drug loading): 4-5 weeks
CC1=CC(=O)c2c(O)cccc2C1=O [plumbagin] | clear | 250 | no | –
O=c1c(O)c(-c2ccc(O)c(O)c2)oc2cc(O)cc(O)c12 [quercetin] | clear | 250 | no | –
C[C@@H]1[C@H](O)[C@@H](C)/C=C/C=C/CC/C=C/C=C/C=C/C=C/C(O[C@H]2O[C@H](C)[C@@H](O)[C@H](N)[C@@H]2O)CC2O[C@](O)(CC(O)C(O)CCC(O)CC(O)CC(O)CC(=O)O[C@H]1C)CC(O)C2C(=O)O (some centres unmarked) [nystatin] | clear solution | 125 | very | –
O=C(OC[C@H]1O[C@@H](OC(=O)c2cc(O)c(O)c(OC(=O)c3cc(O)c(O)c(O)c3)c2)[C@H](OC(=O)c2cc(O)c(O)c(OC(=O)c3cc(O)c(O)c(O)c3)c2)[C@@H](OC(=O)c2cc(O)c(O)c(OC(=O)c3cc(O)c(O)c(O)c3)c2)[C@@H]1OC(=O)c1cc(O)c(O)c(OC(=O)c2cc(O)c(O)c(O)c2)c1)c1cc(O)c(O)c(OC(=O)c2cc(O)c(O)c(O)c2)c1 [tannic acid] | – | – | – | solubility in PEG 300 liquid [3]: 25 % w/w; release of EGCG or Tannic acid from PLGA microspheres [4]: ~65%
CC1=C(/C=C/C(C)=C/C=C/C(C)=C/C(=O)O)C(C)(C)CCC1 [retinoic acid] | – | – | – | drug uptake by pig skin relative to controls (pig skin): higher levels of uptake as compared to the control formulations
COc1ccc([C@@H]2CC(=O)c3c(O)cc(O)cc3O2)cc1O [hesperetin] | clear solution | 250 | no | –
O=C(O[C@@H]1Cc2c(O)cc(O)cc2O[C@@H]1c1cc(O)c(O)c(O)c1)c1cc(O)c(O)c(O)c1 [EGCG, epi gallo catechin gallate] | – | – | – | solubility in PEG 300 liquid [3]: 25 % w/w; solubility in propylene glycol [3]: higher than 50 % w/w; release of EGCG or Tannic acid from PLGA microspheres [4]: approximately 45%
COc1ccc2c(c1)c(CC(=O)O)c(C)n2C(=O)c1ccc(Cl)cc1 [indomethacin] | clear solution | 250 | no | –
CC(C)(C)[C@]1(O)CC2OC(=O)CC23C(=O)OC2OC(=O)[C@H](O)C231 (some centres unmarked) [bilobalide] | clear solution | 250 | no | –
CO[C@H]1C[C@@H]2CC[C@@H](C)[C@@](O)(O2)C(=O)C(=O)N2CCCC[C@H]2C(=O)O[C@H]([C@H](C)C[C@@H]2CC[C@@H](O)[C@H](OC)C2)CC(=O)[C@H](C)/C=C(\C)[C@@H](O)[C@@H](OC)C(=O)[C@H](C)C[C@H](C)/C=C/C=C/C=C/1C [rapamycin] | – | – | – | solubility ([5]; EGCG solution (200 mg/ml) in PBS, aqueous with cosolvent or surfactant or cyclodextrin, thermodynamic from solid, drug concentration solubilised at maximum EGCG concentration, EGCG 200 mg per ml, PBS): ~300 µg/mL (≈ 328 µM); effect of temperature on solubility ([5]; EGCG solutions): little effect of temperature; stability of EGCG solutions of the drug ([5]; EGCG solutions, 24 hours): stable for 24 hours; solubility ([5]; tannic acid solution (500 mg/ml) in water, aqueous with cosolvent or surfactant or cyclodextrin, thermodynamic from solid, drug concentration solubilised at maximum tannic acid concentration, tannic acid 500 mg/ml, water): ~1500 µg/mL (≈ 1640 µM); stability of tannic acid solutions of the drug ([5]; tannic acid solutions, 24 hours): stable for 24 hours; effect of temperature on solubility ([5]; tannic acid solutions, 37° C. or 50° C. compared to 23° C.): no effect of temperature; solubility ([5]; water, free solubility in water, no EGCG or tannic acid): 2 to 3 µg/mL (≈ 2.19 to 3.28 µM)
CC[C@@]1(O)C(=O)OCc2c1cc1n(c2=O)Cc2cc3ccccc3nc2-1 [camptothecin] | clear | 50 | no | –
